Key:
NF-κB = assay: Assay for NF-κB inhibition (luciferase reporter) in PMA-induced SW1353 cells; type: cell-based; conditions: PMA-induced human chondrosarcoma cells (SW1353); NA = not active at 100 µM
Description: The assay was performed in human chondrosarcoma cells (SW1353, obtained from American Type Culture Collection (ATCC), Manassas, VA, USA). Cells were cultured in 1:1 mixture of DMEM/F12 supplemented with 10% fetal bovine serum (FBS), 100 U/mL penicillin G sodium, and 100 μg/mL streptomycin at 37 °C in an atmosphere of 5% CO2 and 95% humidity. Cells (1.2 × 10^7) were washed once in an antibiotic and FBS-free DMEM/F12, and then resuspended in 500 μL of antibiotic-free DMEM/F12 containing 2.5% FBS. NF-κB luciferase plasmid construct was added to the cell suspension at a concentration of 50 μg/mL and incubated for 5 min at room temperature. The cells were electroporated at 160 V and one 70-ms pulse using BTX disposable cuvettes model 640 (4-mm gap) in a BTX Electro Square Porator T 820 (BTX I, San Diego, CA, USA). The transfected cells were plated to the wells of 96-well plates at a density of 1.25 × 10^5 cells per well. After 24 h, cells were treated with different concentrations of test compound for 30 min before the addition of PMA (70 ng/mL) and incubated for 8 h. Luciferase activity was measured using the Luciferase Assay kit (Promega). Light output was detected on a SpectraMax plate reader. Percent inhibition of luciferase activity was calculated as compared to vehicle control, and IC50 values were obtained from concentration response curves. Parthenolide was used as positive control.

iNOS = assay: Assay for iNOS inhibition (nitrite by Griess reagent) in LPS-induced macrophages; type: cell-based; conditions: Mus musculus, RAW264.7; LPS-induced RAW 264.7 macrophages; NA = not active at 50 µM
Description: The assay was performed in mouse macrophages (RAW264.7, obtained from ATCC)) cultured in phenol red free RPMI medium supplemented with 10% bovine calf serum and 100 U/mL penicillin G sodium, and 100 μg/mL streptomycin at 37 °C in an atmosphere of 5% CO2 and 95% humidity. Cells were seeded in 96-well plates (50,000 cells/well) and incubated for 24 h for a confluency of 75% or more. Test samples diluted in serum free medium were added, and after 30 min of incubation, LPS (5 μg/mL) was added and cells were further incubated for 24 h. The concentration of nitric oxide (NO) was determined by measuring the level of nitrite in the cell culture supernatant by using Griess reagent. Percent inhibition of nitrite production by the test compound was calculated in comparison to the vehicle control. IC50 values were obtained from concentration response curves. Parthenolide was used as a positive control.

Cryptococcus neoformans = system: Cryptococcus neoformans; set-up: method as in PMID 27584935; conditions: against Cryptococcus neoformans; cited from earlier work

| SMILES | IC50 (NF-κB) [µM] | IC50 (iNOS) [µM] | in vitro antifungal activity (Cryptococcus neoformans) |
| --- | --- | --- | --- |
| CC(C)C(=O)c1c(O)cc(O)c(Cc2ccc(Br)cc2)c1O [Compound 4, 1-[3-(4-Bromo-benzyl)-2,4,6-trihydroxy-phenyl]-2-methyl-propan-1-one] | 37.5 ± 3.5 | 19.5 ± 0.7 |  |
| COCOc1cc(OCOC)c(C(=O)C(C)C)c(O)c1Cc1ccc(Br)cc1 [Compound 5, 1-[3-(4-Bromo-benzyl)-2-hydroxy-4,6-bis-methoxymethoxy-phenyl]-2-methyl-propan-1-one] | 29 ± 15.5 | 50 |  |
| CC(=O)c1c(O)cc(O)c(C(C)=O)c1O [Compound 2] | 34 ± 8.5 | 19 ± 1.4 | potent |
| CC(C)C(=O)c1c(O)cc(O)cc1O [Compound 3] | 90 ± 14.1 |  |  |
| CC(C)C(=O)c1c(O)cc(O)c(Cc2ccc(Cc3c(O)cc(O)c(C(=O)C(C)C)c3O)cc2)c1O [Compound 6, 2-Methyl-1-{2,4,6-trihydroxy-3-[4-(2,4,6-trihydroxy-3-isobutyryl-benzyl)-benzyl]-phenyl}-propan-1-one] | 85 ± 21.2 | 19 ± 1.4 |  |
| C=C1C(=O)O[C@H]2[C@H]1CC/C(C)=C/CC[C@@]1(C)O[C@@H]21 [Parthenolide, reference compound] | 20.5 ± 2.9 | 2.5 ± 0.2 |  |
| CC(C)C(=O)c1c(O)cc(O)c(Cc2ccc(CN3CCCCC3)cc2)c1O [Compound 7, 2-Methyl-1-[2,4,6-trihydroxy-3-(4-piperidin-1-ylmethyl-benzyl)-phenyl]-propan-1-one] |  | 49 ± 1.4 |  |

— publication PMC6321231, “Synthesis and Anti-Inflammatory Activities of Phloroglucinol-Based Derivatives” (Molecules, 2018)
